Measurements reported in patent US20100303790A1, “USE OF BILIVERDIN REDUCTASE (BVR) AND BVR PEPTIDE FRAGMENTS TO TREAT CORONARY DISORDERS” (UNIVERSITY OF ROCHESTER, priority 2009, published 2010).
“Also recorded” adds a separate entry of the source.

Tests used:
[1] = Langendorff perfused heart: BVR and HO-2 protein by western blot; type: in vivo, rat; conditions: 3 hours perfusion; for HO-2 protein expression: peptide 25 μM with 0.1 μM ISO; for BVR protein expression: peptide 25 μM
Procedure: Western Blot Analysis: Cell lysates were prepared by homogenization in RIPA buffer (40 mM Tris-HCl, pH 7.5, 1 mM EDTA, 1 mM DTT, 0.1 mM Na3VO4, 10 μg/ml aprotinin, 5 μg/ml pepstatin, 20 μg/ml leupeptin, 1 mM bezamidine followed by centrifugation at 800×g for 10 minutes at 4° C. (Ding et al., “Functional Role of Phosphodiesterase 3 in Cardiomyocyte Apoptosis: Implication in Heart Failure,” Circulation 111:2469-2476 (2005), which is hereby incorporated by reference in its entirety). Supernatant proteins were resolved by SDS-PAGE and transferred to nitrocellulose. Western blots were examined using antibodies against β-actin (Cell Signaling), BVR (Huang et al., “Detection of 10 Variants of Biliverdin Reductase in Rat Liver by Two-Dimensional Gel Electrophoresis,” J Biol Chem 264:7844-7849 (1989), which is hereby incorporated by reference in its entirety), HO-1, HO-2 (Panahian et al., “Site of Injury-Directed Induction of Heme Oxygenase-1 and -2 in Experimental Spinal Cord Injury Differential Functions in Neuronal Defense Mechanisms?” J Neurochem 76:539-554 (2001), which is hereby incorporated by reference in its entirety), and cleaved caspase-3 (Cell Signaling, Beverly Mass.). The secondary antibody was horseradish peroxidase-conjugated goat anti-rabbit IgG (1:2,000, Bio-Rad).
In Vivo Experimental Langendorff Model: Male Sprague-Dawley rats weighing 250-300 g (Charles River, Boston, Mass.) were used in this study; the protocol is based on that described by Tompkins et al., “Mitochondrial Dysfunction in Cardiac Ischemia-Reperfusion Injury: ROS From Complex I, Without Inhibition,” Biochim Biophys Acta 1762:223-231 (2006), which is hereby incorporated by reference in its entirety, with minor modification. The rats were fed a standard rat chow and had water ad libitum. All experiments were approved by the University of Rochester Institutional Animal Care and Use Committee. Rats were given two subcutaneous injections of isoproterenol (ISO) (0.01 mg/kg), 6 hours apart, then anesthetized with freshly prepared Avertin (2,2,2-tribromoethanol, […] injected intraperitoneally), and treated with heparin (5000 U/kg), i.p., to protect the heart against microthrombi. The aorta was cannulated in situ with a 22-gauge needle filled with warm Krebs-Henseleit (KH) buffer. The heart was rapidly transferred (<10 s.) to a perfusion apparatus, and retrograde (Langendorff) perfusion begun with 37° C. KH buffer gassed with 95% O2 plus 5% CO2, in constant flow mode (12 ml/min). […] Hemodynamics and heart rate were recorded by inserting a water-filled balloon connected to a transducer (Radnoti LLC, model no. 159904B) into the left ventricle. […]

[2] = biological target: T1, BVR (Homo sapiens, UniProt P53004, A154S/E160D/G155D); conditions: Lerner-Marmarosh et al. 2007; cited from earlier work
T1 sequence (P53004 3-296 A154S/G155D/E160D): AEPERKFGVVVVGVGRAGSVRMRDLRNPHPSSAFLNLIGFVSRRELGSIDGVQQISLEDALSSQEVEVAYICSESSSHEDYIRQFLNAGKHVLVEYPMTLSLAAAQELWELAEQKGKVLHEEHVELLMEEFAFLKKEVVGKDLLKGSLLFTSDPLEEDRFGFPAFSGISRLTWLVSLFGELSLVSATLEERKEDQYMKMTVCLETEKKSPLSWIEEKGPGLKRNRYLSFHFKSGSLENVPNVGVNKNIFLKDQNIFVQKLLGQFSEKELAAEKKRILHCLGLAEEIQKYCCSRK

[3] = system: rat neonatal cardiomyocytes; assay: BVR, HO-2 and HO-1 mRNA in isoproterenol-stimulated cardiomyocytes (RT-PCR); type: cell-based; conditions: 10 μM isoproterenol
Procedure: Neonatal Rat Cardiomyocytes: Primary cultures of neonatal rat cardiomyocytes were prepared as described previously (Ding et al., “Functional Role of Phosphodiesterase 3 in Cardiomyocyte Apoptosis: Implication in Heart Failure,” Circulation 111:2469-2476 (2005) which is hereby incorporated by reference in its entirety). Briefly, fragmented ventricular tissue from 1-2 day old Sprague-Dawley rats was subjected to multiple rounds of enzymatic digestion with collagenase II (Worthington, Lakewood, N.J.). The cells were then collected by low speed centrifugation at 4° C. Non-myocytes were removed by two rounds of pre-plating the cells on culture dishes. The enriched cardiomyocytes were cultured in DMEM with 10% FBS and 10% horse serum. The day after cell adhesion, 10 μM cytosine 1-β-D-arabinofuranoside (Sigma, St. Louis, Mo.) was added to inhibit the growth of contaminating non-myocytes.
Quantitative RT-PCR: Total RNA was isolated using Trizol reagent (Invitrogen). The first-strand cDNA synthesis and quantitative polymerase chain reaction (RT-PCR) were performed as previously described (Tudor et al., “Biliverdin Reductase is a Transporter of Haem into the Nucleus and is Essential for Regulation of HO-1 Gene Expression by Haematin,” Biochem J 413:405-416 (2008), which is hereby incorporated by reference in its entirety). The following primers were used for PCR analysis: […]
PCR products were resolved by electrophoresis and quantified by image analysis of stained gels.
The question of whether the increased synthesis of each protein required elevated levels of BVR and HO-2 mRNA was investigated by RT-PCR. […] HO-1 protein expression was not detected throughout the whole process of isoproterenol treatment up to 96 hours.

[4] = system: rat neonatal cardiomyocytes; conditions: literature (Hu et al. 2006); cited from earlier work

| Compound | HO-2 protein expression [1] | BVR protein expression [1] | effect on BVR activity [2] | HO-2 mRNA content [3] | level of BVR mRNA [3] | level of HO-1 mRNA [3] | cardiomyocyte apoptosis [4] |
| --- | --- | --- | --- | --- | --- | --- | --- |
| KYCCSRK (biliverdin reductase peptide) [KYCCSRK^296] | increased HO-2 protein expression; also recorded: greatly enhanced increase of HO-2 protein | do not affect protein expression | activator | – | – | – | – |
| KKRILHC (biliverdin reductase peptide) [KKRILHC^281] | inhibited the BVR-induced HO-2 increase; also recorded: virtually eliminated the induction of HO-2 | do not affect protein expression | potent inhibitor | – | – | – | – |
| CC(C)NCC(O)c1ccc(O)c(O)c1 (stereo not shown) [isoproterenol] | – | – | – | remained unchanged | increased | transient increase | increases cardiomyocyte apoptosis |
